Assay results from patent US6737383B1, “Herbicidal oxadiazolidines” (priority 1999, dated 2004).

What was measured:
[1] = tested on: bedstraw; assay: Test B pre/postemergence bedstraw; type: in vivo, Galium aparine
In short: (§1)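 Test chemicals in a non-phytotoxic solvent mixture with surfactant were sprayed preemergence onto planted seeds and postemergence onto plants 2 to 18 cm tall (1- to 4-leaf stage). After twelve to sixteen days in a greenhouse, injury was visually rated against untreated controls from 0 (no effect) to 10 (complete control).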

[2] = tested on: blackgrass; assay: Test B pre/postemergence blackgrass; type: in vivo, Alopecurus myosuroides
In short: as §1

[3] = tested on: surinam grass; assay: Test B pre/postemergence surinam grass; type: in vivo, Brachiaria decumbens
In short: as §1

[4] = tested on: cocklebur; assay: Test B pre/postemergence cocklebur; type: in vivo, Xanthium strumarium
In short: as §1

[5] = tested on: corn; assay: Test B pre/postemergence corn; type: in vivo, Zea mays
In short: as §1

[6] = tested on: crabgrass; assay: Test B pre/postemergence crabgrass; type: in vivo, Digitaria sanguinalis
In short: as §1

[7] = tested on: giant foxtail; assay: Test B pre/postemergence giant foxtail; type: in vivo, Setaria faberii
In short: as §1

[8] = tested on: morningglory; assay: Test B pre/postemergence morningglory; type: in vivo, Ipomoea hederacea
In short: as §1

[9] = tested on: pigweed; assay: Test B pre/postemergence pigweed; type: in vivo, Amaranthus retroflexus
In short: as §1

[10] = tested on: rape; assay: Test B pre/postemergence rape; type: in vivo, Brassica napus
In short: as §1

[11] = tested on: sugar beet; assay: Test B pre/postemergence sugar beet; type: in vivo, Beta vulgaris
In short: as §1

[12] = tested on: wheat; assay: Test B pre/postemergence wheat; type: in vivo, Triticum aestivum
In short: as §1

[13] = tested on: wild oat; assay: Test B pre/postemergence wild oat; type: in vivo, Avena fatua
In short: as §1

[14] = tested on: purple nutsedge; assay: Test B pre/postemergence purple nutsedge; type: in vivo, Cyperus rotundus
In short: as §1

[15] = Postemergence, Rate 125 g/ha, scale of 0 to 10 where 0 is no effect and 10 is complete control
[16] = Preemergence, Rate 62 g/ha, scale of 0 to 10 where 0 is no effect and 10 is complete control
[17] = Preemergence, Rate 125 g/ha, 0 is no effect, 10 is complete control
[18] = Preemergence, Rate 250 g/ha, scale 0 to 10, 0 is no effect, 10 is complete control
[19] = Preemergence, Rate 500 g/ha, scale 0 to 10 (0 no effect, 10 complete control)
[20] = Rate 62 g/ha, Postemergence, scale of 0 to 10 where 0 is no effect and 10 is complete control
[21] = Rate 250 g/ha, Postemergence, scale 0 to 10, 0 is no effect, 10 is complete control
[22] = Rate 500 g/ha, Postemergence, scale 0 to 10

For CC(C)N(C(=O)n1oc(=O)n([C@@H](C)c2ccccc2)c1=O)c1ccccc1 [Compound 173], the “Bedstraw plant response rating” value [1, 15] was 0, the “Bedstraw plant response rating” value [1, 16] was 0 and the “Bedstraw plant response rating (0 to 10 scale)” value [1, 17] was 0. For the same compound, the “Bedstraw plant response rating” value [1, 18] was 0, the “Bedstraw plant response rating” value [1, 19] was 0 and the “Bedstraw plant response rating” value [1, 20] was 0. For the same compound, the “Plant response rating, Bedstraw” value [1, 21] was 4, the “Blackgrass plant response rating” value [2, 15] was 0 and the “Blackgrass plant response rating” value [2, 16] was 0. For the same compound, the “Blackgrass plant response rating (0 to 10 scale)” value [2, 17] was 0, the “Blackgrass plant response rating” value [2, 18] was 0 and the “Blackgrass plant response rating” value [2, 19] was 6. The “Blackgrass plant response rating” value [2, 20] was 0, the “Plant response rating, Blackgrass” value [2, 21] was 2 and the “Blackgrass plant response rating” value [2, 22] was 2. For the same compound, the “B. signalgrass plant response rating” value [3, 15] was 0, the “B. signalgrass plant response rating” value [3, 16] was 0 and the “B. signalgrass plant response rating (0 to 10 scale)” value [3, 17] was 0. The “B. signalgrass plant response rating” value [3, 18] was 3, the “B. signalgrass plant response rating” value [3, 19] was 4 and the “B. signalgrass plant response rating” value [3, 20] was 0. The “Plant response rating, B. signalgrass” value [3, 21] was 0, the “B. signalgrass plant response rating” value ([3]; Rate 500 g/ha, Postemergence, scale 0 to 10, 0 no effect, 10 complete control) was 0 and the “Cocklebur plant response rating” value [4, 15] was 0. For the same compound, the “Cocklebur plant response rating” value [4, 16] was 0, the “Cocklebur plant response rating (0 to 10 scale)” value [4, 17] was 0 and the “Cocklebur plant response rating” value [4, 18] was 0. For the same compound, the “Cocklebur plant response rating” value [4, 19] was 0, the “Cocklebur plant response rating” value [4, 20] was 0 and the “Plant response rating, Cocklebur” value [4, 21] was 1. The “Cocklebur plant response rating” value [4, 22] was 2, the “Corn plant response rating” value [5, 15] was 0 and the “Corn plant response rating” value [5, 16] was 0. For the same compound, the “Corn plant response rating (0 to 10 scale)” value [5, 17] was 0, the “Corn plant response rating” value [5, 18] was 0 and the “Corn plant response rating” value [5, 19] was 0. The “Corn plant response rating” value [5, 20] was 0, the “Plant response rating, Corn” value [5, 21] was 0 and the “Corn plant response rating” value [5, 22] was 0. The “Crabgrass plant response rating” value [6, 15] was 4, the “Crabgrass plant response rating” value [6, 16] was 2 and the “Crabgrass plant response rating (0 to 10 scale)” value [6, 17] was 6. The “Crabgrass plant response rating” value [6, 18] was 8, the “Crabgrass plant response rating” value [6, 19] was 9 and the “Crabgrass plant response rating” value [6, 20] was 0. The “Plant response rating, Crabgrass” value [6, 21] was 5, the “Crabgrass plant response rating” value [6, 22] was 8 and the “Giant foxtail plant response rating” value [7, 15] was 0. For the same compound, the “Giant foxtail plant response rating” value [7, 16] was 6, the “Giant foxtail plant response rating (0 to 10 scale)” value [7, 17] was 9 and the “Giant foxtail plant response rating” value [7, 18] was 9. The “Giant foxtail plant response rating” value [7, 19] was 10, the “Giant foxtail plant response rating” value [7, 20] was 0 and the “Plant response rating, Giant foxtail” value [7, 21] was 0. The “Giant foxtail plant response rating” value [7, 22] was 0, the “Morningglory plant response rating” value [8, 15] was 10 and the “Morningglory plant response rating” value [8, 16] was 0. The “Morningglory plant response rating (0 to 10 scale)” value [8, 17] was 0, the “Morningglory plant response rating” value [8, 18] was 0 and the “Morningglory plant response rating” value [8, 19] was 0. The “Morningglory plant response rating” value [8, 20] was 7, the “Plant response rating, Morningglory” value [8, 21] was 10 and the “Morningglory plant response rating” value [8, 22] was 10. For the same compound, the “Redroot pigweed plant response rating” value [9, 15] was 0, the “Redroot pigweed plant response rating” value [9, 16] was 0 and the “Redroot pigweed plant response rating (0 to 10 scale)” value [9, 17] was 0. The “Redroot pigweed plant response rating” value [9, 18] was 0, the “Redroot pigweed plant response rating” value [9, 19] was 5 and the “Redroot pigweed plant response rating” value [9, 20] was 0. For the same compound, the “Plant response rating, Redroot pigweed” value [9, 21] was 0, the “Redroot pigweed plant response rating” value [9, 22] was 0 and the “Rape plant response rating” value [10, 15] was 0. The “Rape plant response rating” value [10, 16] was 0, the “Rape plant response rating (0 to 10 scale)” value [10, 17] was 0 and the “Rape plant response rating” value [10, 18] was 0. For the same compound, the “Rape plant response rating” value [10, 19] was 0, the “Rape plant response rating” value [10, 20] was 0 and the “Plant response rating, Rape” value [10, 21] was 0. For the same compound, the “Rape plant response rating” value [10, 22] was 0, the “Sugarbeets plant response rating” value [11, 15] was 0 and the “Sugarbeets plant response rating” value [11, 16] was 0. The “Sugarbeets plant response rating (0 to 10 scale)” value [11, 17] was 2, the “Sugarbeets plant response rating” value [11, 18] was 3 and the “Sugarbeets plant response rating” value [11, 19] was 6. For the same compound, the “Sugarbeets plant response rating” value [11, 20] was 0, the “Plant response rating, Sugarbeets” value [11, 21] was 0 and the “Sugarbeets plant response rating” value [11, 22] was 5. For the same compound, the “Wheat plant response rating” value [12, 16] was 0, the “Wheat plant response rating (0 to 10 scale)” value [12, 17] was 0 and the “Wheat plant response rating” value [12, 18] was 0. For the same compound, the “Wheat plant response rating” value [12, 19] was 0, the “Plant response rating, Wheat” value [12, 21] was 0 and the “Wheat plant response rating” value [12, 22] was 0. For the same compound, the “Wild oats plant response rating” value [13, 16] was 0, the “Wild oats plant response rating (0 to 10 scale)” value [13, 17] was 0 and the “Wild oats plant response rating” value [13, 18] was 2. For the same compound, the “Wild oats plant response rating” value [13, 19] was 3, the “Plant response rating, Wild oats” value [13, 21] was 0 and the “Wild oats plant response rating” value [13, 22] was 0. The “Nutsedge plant response rating” value [14, 15] was 0, the “Nutsedge plant response rating” value [14, 16] was 0 and the “Nutsedge plant response rating (0 to 10 scale)” value [14, 17] was 0. For the same compound, the “Nutsedge plant response rating” value [14, 18] was 0, the “Nutsedge plant response rating” value [14, 19] was 0 and the “Nutsedge plant response rating” value [14, 20] was 0. The “Plant response rating, Nutsedge” value [14, 21] was 0 and the “Nutsedge plant response rating” value [14, 22] was 0.
